Data set [1] deals with Botryotinia fuckeliana (Botrytis cinerea). Briefly: Botryotinia fuckeliana (Botrytis cinerea)/Liquid Culture (Gray Mould). In kind it is cell-based. To be noted: read-out: control of Botryotinia fuckeliana.
Data set [2] concerns Fusarium culmorum. Briefly: microbe, parasite or virus in culture. It counts as cell-based. The settings on record: read-out: control of Fusarium culmorum.
The subject of data set [3] is Fusarium culmorum. Briefly: whole plant or invertebrate. The settings on record: in Triticum aestivum, read-out: control of Fusarium culmorum. It counts as in vivo.
Data set [4] concerns Glomerella lagenarium (Colletotrichum lagenarium). Briefly: Glomerella lagenarium (Colletotrichum lagenarium)/Liquid Culture (Anthracnose). In kind it is cell-based. The settings on record: Colletotrichum orbiculare, read-out: control of Glomerella lagenarium.
For data set [5], the system named is Monographella nivalis (Microdochium nivale). Briefly: Monographella nivalis (Microdochium nivale)/Liquid Culture (Foot Rot Cereals). In kind it is cell-based. The settings on record: read-out: control of Monographella nivalis.
Data set [6] has as its system Magnaporthe grisea (Pyricularia oryzae). Briefly: microbe, parasite or virus in culture. In kind it is cell-based. To be noted: read-out: control of Magnaporthe grisea.
A further data set deals with Gaeumannomyces graminis. Briefly: Gaeumannomyces graminis/Liquid Culture (Take-all of Cereals). In kind it is cell-based. The settings on record: read-out: control of Gaeumannomyces graminis.
Another data set has as its system Sclerotinia sclerotiorum. Briefly: Sclerotinia sclerotiorum/Liquid Culture (Cottony Rot). The settings on record: read-out: control of Sclerotinia sclerotiorum.
The test system of data set [7] is Magnaporthe grisea (Pyricularia oryzae). Briefly: whole plant or invertebrate. To be noted: foliar, read-out: control of Magnaporthe grisea. In kind it is in vivo.
Setting [8] is: 200 ppm, liquid culture, compared to untreated control, 3-4 days after application.
[9] abbreviates: 200 ppm, liquid culture, compared to untreated control, 4-5 days after application.

Read-outs that look alike come from different tables or passages of the source.

Drawing on US10952436B2, “Microbiocidal quinoline (thio)carboxamide derivatives” (SYNGENTA PARTICIPATIONS AG, priority 2017, dated 2021), this text covers inhibition of growth, pest or weed control and melting point for 13 molecules.

Experimental for Sclerotinia sclerotiorum: Mycelia fragments of a newly grown liquid culture of the fungus are directly mixed into nutrient broth (Vogels broth). After placing a (DMSO) solution of test compound into a microtiter plate (96-well format) the nutrient broth containing the fungal material is added. The test plates are incubated at 24° C. and the inhibition of growth is determined photometrically 3-4 days after application.

A word on the melting point: it is the temperature, or range, at which the solid turns liquid. `O=C(Nc1cnc2c(F)cccc2c1)C(Cc1ccccc1)CC(F)(F)F` (centres unmarked) [Compound E-82, 2-benzyl-4,4,4-trifluoro-N-(8-fluoro-3-quinolyl)butanamide] registered a melting point of 161 to 164 °C. The inhibition of growth at 200 ppm in data set [1] (setting [8]) is at least 80%. The inhibition of growth at 200 ppm in the data set with Fusarium culmorum [2] was at least 80%. For the same molecule, the pest or weed control at 200 ppm with Fusarium culmorum [3] is at least 80%. For the same molecule, the inhibition of growth at 200 ppm in data set [4] (setting [8]) is at least 80%. Further, in data set [5] (setting [9]), the inhibition of growth at 200 ppm was at least 80%. In data set [6], the inhibition of growth at 200 ppm is at least 80%. The inhibition of growth at 200 ppm in the data set with Gaeumannomyces graminis (setting [9]) is at least 80%.

In the case of `CC(C)CC(C#N)(Cc1ccccc1)C(=O)Nc1cnc2c(F)cccc2c1` (centres unmarked) [Compound E-83, 2-benzyl-2-cyano-N-(8-fluoro-3-quinolyl)-4-methyl-pentanamide], the inhibition of growth at 200 ppm (in data set [1] (setting [8]); in the data set with Fusarium culmorum [2]; in data set [4] (setting [8]); in [5] (setting [9]); in data set [6]; in the data set with Gaeumannomyces graminis (setting [9])) was at least 80% in each case. In addition, the pest or weed control at 200 ppm with Fusarium culmorum [3] was at least 80%.

With `CC(C)CC(C)(Cc1ccccc1)C(=O)Nc1cnc2c(F)cccc2c1` (centres unmarked) [Compound E-87, 2-benzyl-N-(8-fluoro-3-quinolyl)-2,4-dimethyl-pentanamide], the melting point fell in the range of 140 to 142 °C. The inhibition of growth at 200 ppm in data set [1] (setting [8]) is at least 80%. Also, the inhibition of growth at 20 ppm with Sclerotinia sclerotiorum is at least 80%. Moreover, the inhibition of growth at 200 ppm in the data set on Fusarium culmorum [2] was at least 80%. In addition, the pest or weed control at 200 ppm in the data set on Fusarium culmorum [3] is at least 80%. Further, the inhibition of growth at 200 ppm in data set [4] (setting [8]) was at least 80%. In [5] (setting [9]), the inhibition of growth at 200 ppm is at least 80%. Further, the inhibition of growth at 200 ppm in [6] is at least 80%. The inhibition of growth at 200 ppm with Gaeumannomyces graminis (setting [9]) is at least 80%.

On to `CC(C)CC(C)(Cc1ccccc1)C(=O)Nc1cnc2ccccc2c1` (centres unmarked) [Compound E-85, 2-benzyl-2,4-dimethyl-N-(3-quinolyl)pentanamide], for which the melting point is 147 to 148 °C. Besides, the inhibition of growth at 200 ppm in data set [1] (setting [8]) is at least 80%. In the data set on Fusarium culmorum [2], the inhibition of growth at 200 ppm is at least 80%. In [4] (setting [8]), the inhibition of growth at 200 ppm was at least 80%. In addition, the inhibition of growth at 200 ppm in the data set on Gaeumannomyces graminis (setting [9]) is at least 80%.

`CCCC(C)(Cc1ccccc1)C(=O)Nc1cnc2c(F)cccc2c1` (centres unmarked) [Compound E-77, 2-benzyl-N-(8-fluoro-3-quinolyl)-2-methyl-pentanamide]: the inhibition of growth at 200 ppm (in data set [1] (setting [8]); with Fusarium culmorum [2]; in data set [4] (setting [8]); in data set [5] (setting [9]); in data set [6]; in the data set on Gaeumannomyces graminis (setting [9])) was at least 80% throughout. Further, the pest or weed control at 200 ppm in the data set on Fusarium culmorum [3] is at least 80%.

Molecule `C=C(C)CC(C)(Cc1ccccc1)C(=O)Nc1cnc2c(F)cccc2c1` (centres unmarked) [Compound E-74, 2-benzyl-N-(8-fluoro-3-quinolyl)-2,4-dimethyl-pent-4-enamide] showed a melting point of 147 to 149 °C. Moreover, the inhibition of growth at 200 ppm in data set [1] was at least 80%. The inhibition of growth at 20 ppm with Sclerotinia sclerotiorum was at least 80%. For the same molecule, the inhibition of growth at 200 ppm with Fusarium culmorum [2] was at least 80%. The pest or weed control at 200 ppm in the data set on Fusarium culmorum [3] is at least 80%. Further, the inhibition of growth at 200 ppm in data set [4] is at least 80%. Besides, the inhibition of growth at 200 ppm in data set [5] was at least 80%. Also, the inhibition of growth at 200 ppm in [6] was at least 80%. Moreover, in the data set on Gaeumannomyces graminis, the inhibition of growth at 200 ppm is at least 80%.

In the case of `C=C(C)CC(C)(Cc1ccccc1)C(=O)Nc1cc2cccc(F)c2nc1C` (centres unmarked) [Compound E-66, 2-benzyl-N-(8-fluoro-2-methyl-3-quinolyl)-2,4-dimethyl-pent-4-enamide], the inhibition of growth at 200 ppm (in [1] (setting [8]); with Fusarium culmorum [2]; in data set [4] (setting [8]); in [5] (setting [9]); in [6]; in the data set on Gaeumannomyces graminis (setting [9])) was at least 80% each time. In addition, in the data set with Fusarium culmorum [3], the pest or weed control at 200 ppm is at least 80%.

For `CC1(CC(C)(Cc2ccccc2)C(=O)Nc2cnc3c(F)cccc3c2)CC1` (centres unmarked) [Compound E-70, 2-benzyl-N-(8-fluoro-3-quinolyl)-2-methyl-3-(1-methylcyclopropyl) propanamide], the melting point lay in the range of 149 to 151 °C. Moreover, the inhibition of growth at 200 ppm in data set [1] (setting [8]) was at least 80%. Moreover, in the data set with Fusarium culmorum [2], the inhibition of growth at 200 ppm is at least 80%. Moreover, the inhibition of growth at 200 ppm in data set [4] (setting [8]) was at least 80%. In data set [6], the inhibition of growth at 200 ppm was at least 80%. Further, the inhibition of growth at 200 ppm in the data set on Gaeumannomyces graminis (setting [9]) was at least 80%.

In turn, `C=C(F)CC(C)(Cc1ccccc1)C(=O)Nc1cnc2c(F)cccc2c1` (centres unmarked) [Compound E-71, 2-benzyl-4-fluoro-N-(8-fluoro-3-quinolyl)-2-methyl-pent-4-enamide] yielded a melting point of 132 to 134 °C. The inhibition of growth at 200 ppm in data set [1] (setting [8]) was at least 80%. Besides, the inhibition of growth at 200 ppm in the data set with Fusarium culmorum [2] is at least 80%. Also, the pest or weed control at 200 ppm with Fusarium culmorum [3] was at least 80%. Moreover, the inhibition of growth at 200 ppm in [4] (setting [8]) is at least 80%. In addition, the inhibition of growth at 200 ppm in [5] (setting [9]) is at least 80%. Further, the inhibition of growth at 200 ppm in data set [6] was at least 80%. The inhibition of growth at 200 ppm in the data set on Gaeumannomyces graminis (setting [9]) is at least 80%.

`CC(F)(F)CC(C)(Cc1ccccc1)C(=O)Nc1cnc2c(F)cccc2c1` (centres unmarked) [Compound E-68, 2-benzyl-4,4-difluoro-N-(8-fluoro-3-quinolyl)-2-methyl-pentanamide] returned a melting point of 156 to 158 °C. The inhibition of growth at 200 ppm in data set [1] (setting [8]) was at least 80%. For the same molecule, the inhibition of growth at 200 ppm in the data set with Fusarium culmorum [2] is at least 80%. For the same molecule, the pest or weed control at 200 ppm with Fusarium culmorum [3] was at least 80%. Moreover, the inhibition of growth at 200 ppm in [4] (setting [8]) was at least 80%. Moreover, the inhibition of growth at 200 ppm in [5] (setting [9]) is at least 80%. Besides, in data set [6], the inhibition of growth at 200 ppm was at least 80%. The inhibition of growth at 200 ppm with Gaeumannomyces graminis (setting [9]) was at least 80%.

With `CC(Cc1ccccc1)(CC1CC1)C(=O)Nc1cnc2c(F)cccc2c1` (centres unmarked) [Compound E-76, 2-benzyl-3-cyclopropyl-N-(8-fluoro-3-quinolyl)-2-methyl-propanamide], the melting point is 157 to 159 °C. In addition, the pest or weed control at 200 ppm in data set [7] is at least 80%. For the same molecule, the inhibition of growth at 200 ppm in data set [1] (setting [8]) is at least 80%. Also, the inhibition of growth at 200 ppm in the data set with Fusarium culmorum [2] was at least 80%. In data set [4] (setting [8]), the inhibition of growth at 200 ppm was at least 80%. Besides, the inhibition of growth at 200 ppm in [5] (setting [9]) was at least 80%. In addition, in data set [6], the inhibition of growth at 200 ppm is at least 80%. For the same molecule, in the data set with Gaeumannomyces graminis (setting [9]), the inhibition of growth at 200 ppm is at least 80%.

Take `C=C(C)CC(C)(Cc1ccccc1)C(=O)Nc1cnc2c(F)cccc2c1C` (centres unmarked) [Compound E-65, 2-benzyl-N-(8-fluoro-4-methyl-3-quinolyl)-2,4-dimethyl-pent-4-enamide]: the melting point was 105 to 109 °C. The inhibition of growth at 200 ppm in [1] (setting [8]) is at least 80%. For the same molecule, the inhibition of growth at 200 ppm with Fusarium culmorum [2] is at least 80%. Further, in [4] (setting [8]), the inhibition of growth at 200 ppm was at least 80%. For the same molecule, the inhibition of growth at 200 ppm in data set [5] (setting [9]) was at least 80%. The inhibition of growth at 200 ppm in data set [6] was at least 80%. The inhibition of growth at 200 ppm in the data set with Gaeumannomyces graminis (setting [9]) is at least 80%.

Consider `CC(C)(Cc1ccccc1)C(=O)Nc1cnc2c(F)cccc2c1` [Compound E-69, N-(8-fluoro-3-quinolyl)-2,2-dimethyl-3-phenyl-propanamide], for which the inhibition of growth at 200 ppm (in data set [1] (setting [8]); in the data set with Fusarium culmorum [2]; in data set [4] (setting [8]); in data set [5] (setting [9]); in the data set with Gaeumannomyces graminis (setting [9])) was at least 80% in each case. The pest or weed control at 200 ppm with Fusarium culmorum [3] was at least 80%.
